Measured values taken from patent publication US20030134859A1 (SANKYO COMPANY, LIMITED, priority 2000, published 2003).

Legend:
Rat white adipocytes = experiment: Stimulation of differentiation of the adipocytes (Oil Red O); format: cell-based; conditions: 100 nM test compound, 5 days, Oil Red O ABS550, control = 100%, blank = 0%, Table 7; for activity at 0.1 µM: Rattus norvegicus, Adipocyte, 120 h, read-out: Rate of Differentiation (%)
In short: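 Oil Red O lipid staining, absorbance 550 nm after DMSO extraction, quantified differentiation of rat white adipocytes exposed 5 days to compound (final 100 nM, 0.1% DMSO) in differentiation medium. Percent differentiation normalised between cell-free blank (0%) and DMSO control (100%).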

[1] = tested on: Mouse preadipocyte strain 3T3-L1; experiment: Inhibition of differentiation as an indication of acetic acid uptake; format: cell-based; conditions: control (0.01% dimethylsulfoxide) = 100%; for activity at 0.1 µM: Mus musculus, 3T3-L1, 0.1 μM test substance, read-out: Rate of Uptake (%) of [2-14C] acetic acid; for Rate of Uptake (%) of [2-14C] acetic acid: 0.1 μM test substance
In short: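 Differentiation is indexed by 1 hr [2-14C]acetic acid incorporation, measured by scintillation counting and given as uptake relative to 0.01% DMSO control (100%). Mouse 3T3-L1 preadipocytes, pre-grown 10 days, received 0.1 μM test substance throughout a 4-day insulin/IBMX/dexamethasone induction, followed by 2 days' maintenance culture.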

| Compound | activity at 0.1 µM (Rat white adipocytes) [%] | activity at 0.1 µM [1] [%] | Rate of Differentiation (%) (Rat white adipocytes) | Rate of Uptake (%) of [2-14C] acetic acid [1] [%] |
| --- | --- | --- | --- | --- |
| O=C(Nc1nc(-c2ccc(Cl)c(Cl)c2)cs1)c1cc([N+](=O)[O-])ccc1Cl [Example 43, N-[4-(3,4-Dichlorophenyl)thiazol-2-yl]-(2-chloro-5-nitrophenyl)carboxamide] | 118 | 56.7 |  |  |
| O=C(Nc1nccc2ccccc12)c1cc([N+](=O)[O-])ccc1Cl [Example 59, N-(Isoquinolin-1-yl)-(2-chloro-5-nitrophenyl)carboxamide] | 121 | 36.3 |  |  |
| O=C(Nc1nc(Cl)cc(Cl)n1)c1cc([N+](=O)[O-])ccc1Cl [Example 83, N-(4,6-Dichloropyrimidin-2-yl)-(2-chloro-5-nitrophenyl)carboxamide] | 114 | 75.6 |  |  |
| Cc1noc(NS(=O)(=O)c2ccc(NC(=O)c3cc([N+](=O)[O-])ccc3Cl)cc2)c1C [Example 104, N-[4-[(3,4-Dimethylisoxazol-6-yl)aminosulfonyl]phenyl]-(2-chloro-5-nitrophenyl)carboxamide] | 115 | 89.8 |  |  |
| O=C(Nc1ccc(N2CCCCC2)cc1)c1cc([N+](=O)[O-])ccc1Cl [Example 114, N-[4-(Piperidin-1-yl)phenyl]-(2-chloro-5-nitrophenyl)carboxamide] | 118 | 79 |  |  |
| Cc1ccc(C(=O)Nc2ccc(NC(=O)c3cc([N+](=O)[O-])ccc3Cl)cc2)cc1 [Example 121, N-[4-(4-Methylbenzoyl)aminophenyl]-(2-chloro-5-nitrophenyl)carboxamide] | 136 | 81 |  |  |
| Cc1ccc2nc(NC(=O)c3cc([N+](=O)[O-])ccc3Cl)sc2c1 [Example 141, N-(6-Methybenzothiazol-2-yl)-(2-chloro-5-nitrophenyl)carboxamide] |  |  | 133.2 | 78.7 |
| CCc1ccc(S(=O)(=O)Nc2ccc(NC(=O)c3cc([N+](=O)[O-])ccc3Cl)cc2)cc1 [Example 150, N-[4-(4-Ethylbenzenesulfonylamino)phenyl]-(2-chloro-5-nitrophenyl)carboxamide] | 137 | 82.9 |  |  |
| O=C(Nc1ccc(S(=O)(=O)N2CCCCC2)cc1)c1cc([N+](=O)[O-])ccc1Cl [Example 151, N-[4-(Piperidyisulfonyl)phenyl]-(2-chloro-5-nitrophenyl)carboxamide] | 118 | 62.3 |  |  |
| O=C(Nc1ccc(S(=O)(=O)N2CCOCC2)cc1)c1cc([N+](=O)[O-])ccc1Cl [Example 153, N-[4-(Morpholin-4-ylsulfonyl)phenyl]-(2-chloro-5-nitrophenyl)carboxamide] | 110 | 70.2 |  |  |
| N-[3-(Pyrrolidinylsulfonyl)phenyl]-(2-chloro-5-nitrophenyl)carboxamide [Example 154] |  |  | 123.8 | 67.4 |
